Data from US20250215029A1 (Recludix Pharma, Inc., priority 2022, published 2025).

Target: T1, pY705-STAT3 in PBMC (Homo sapiens, UniProt P40763)
T1 construct: Cryopreserved Peripheral Blood Mononuclear Cells (PBMC) are from AllCells; host or cells: cryopreserved PBMC
Assay: MSD-pSTAT-PBMC Assay (pSTAT3, IL-6 stimulated)
Assay type: cell-based
Conditions: PBMC, compound 3 hrs, then 10 ng/mL IL-6 for 10 min; Table 115; read-out: STAT3
Outline: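 Inhibition of cytokine-induced STAT phosphorylation was measured in recovered human PBMC after 3 hrs compound exposure and a 10 min IL-4 (1 ng/mL) or IL-6 (10 ng/mL) challenge. MSD detection of pY641-STAT6 or pY705-STAT3 yielded IC50 values.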

T1 sequence (P40763 whole entry): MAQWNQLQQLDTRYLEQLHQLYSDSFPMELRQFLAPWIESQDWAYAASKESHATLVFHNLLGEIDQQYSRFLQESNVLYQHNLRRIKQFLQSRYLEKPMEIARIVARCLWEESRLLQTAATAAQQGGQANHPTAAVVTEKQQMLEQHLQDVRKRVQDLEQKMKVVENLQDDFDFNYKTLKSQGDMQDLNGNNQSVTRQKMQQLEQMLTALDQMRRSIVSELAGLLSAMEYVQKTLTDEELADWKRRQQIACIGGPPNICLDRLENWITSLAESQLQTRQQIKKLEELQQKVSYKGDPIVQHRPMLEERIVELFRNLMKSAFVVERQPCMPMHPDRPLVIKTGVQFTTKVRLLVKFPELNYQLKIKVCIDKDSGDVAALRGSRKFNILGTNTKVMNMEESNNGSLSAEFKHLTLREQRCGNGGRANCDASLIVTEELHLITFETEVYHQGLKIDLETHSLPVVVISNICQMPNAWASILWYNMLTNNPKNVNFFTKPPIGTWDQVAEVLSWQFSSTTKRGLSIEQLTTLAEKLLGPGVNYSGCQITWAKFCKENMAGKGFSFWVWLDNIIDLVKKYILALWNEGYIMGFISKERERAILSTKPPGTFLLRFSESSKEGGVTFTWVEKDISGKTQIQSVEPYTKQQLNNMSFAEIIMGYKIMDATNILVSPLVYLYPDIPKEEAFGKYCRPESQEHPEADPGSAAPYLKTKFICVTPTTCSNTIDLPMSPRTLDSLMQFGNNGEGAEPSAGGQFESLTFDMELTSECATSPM

| SMILES | IC50 [nM] |
| --- | --- |
| COCCOC(=O)[C@H](C)NP(=O)(Cc1ccc2sc(C(=O)N[C@H]3CCC[C@H]4CC[C@@H](C(=O)N5CC(c6cccnc6)C5)N4C3=O)cc2c1)Oc1ccccc1 (stereo partly drawn) [Compound 393, 2-methoxyethyl (((2-(((3S,6S,9aS)-5-oxo-3-(3-(pyridin-3-yl)azetidine-1-carbonyl)octahydro-1H-pyrrolo[1,2-a]azepin-6-yl)carbamoyl)benzo [b]thiophen-5-yl)methyl)(phenoxy)phosphoryl)-L-alaninate] | 100 to 1000 |
| C[C@H](NP(=O)(Oc1ccccc1)C(F)c1ccc2sc(C(=O)N[C@H]3CCC[C@H]4CC[C@@H](C(=O)N5CC(c6cnccc6F)C5)N4C3=O)cc2c1)C(=O)OCCC(F)(F)F (stereo partly drawn) [Compound 983, 3,3,3-trifluoropropyl ((fluoro(2-(((3S,6S,9aS)-3-(3-(4-fluoropyridin-3-yl)azetidine-1-carbonyl)-5-oxooctahydro-1H-pyrrolo[1,2-a]azepin-6-yl)carbamoyl)benzo [b]thiophen-5-yl)methyl)(phenoxy)phosphoryl)-L-alaninate] | < 100 |
| COC[C@H](NP(=O)(Cc1ccc2sc(C(=O)N[C@H]3CCC[C@H]4CC[C@@H](C(=O)N5CC(c6cccnc6)C5)N4C3=O)cc2c1)Oc1ccccc1)C(=O)OCC(C)C (stereo partly drawn) [Compound 945, isobutyl O-methyl-N-(((2-(((3S,6S,9aS)-5-oxo-3-(3-(pyridin-3-yl)azetidine-1-carbonyl)octahydro-1H-pyrrolo[1,2-a]azepin-6-yl)carbamoyl)benzo [b]thiophen-5-yl)methyl)(phenoxy)phosphoryl)-L-serinate] | 100 to 1000 |
| CCCOC(=O)[C@H](C)NP(=O)(Cc1ccc2sc(C(=O)N[C@H]3CCC[C@H]4CC[C@@H](C(=O)N5CC(c6cncnc6C)C5)N4C3=O)cc2c1)Oc1ccccc1 (stereo partly drawn) [Compound 260, propyl (((2-(((3S,6S,9aS)-3-(3-(4-methylpyrimidin-5-yl)azetidine-1-carbonyl)-5-oxooctahydro-1H-pyrrolo[1,2-a]azepin-6-yl)carbamoyl)benzo [b]thiophen-5-yl)methyl)(phenoxy)phosphoryl)-L-alaninate] | 1000 to 3000 |
| CCCOC(=O)[C@H](C)N[P@](=O)(Oc1ccccc1)[C@H](F)c1ccc2sc(C(=O)N[C@H]3CCC[C@H]4CC[C@@H](C(=O)N5CC(c6cnccc6F)C5)N4C3=O)cc2c1 (single isomer, unassigned) [Compound 998] | < 100 |
| CCCOC(=O)[C@H](C)NP(=O)(Oc1ccccc1)C(F)(F)c1ccc2sc(C(=O)N[C@H]3CCC[C@H]4CC[C@@H](C(=O)N5CC(c6cccnc6)C5)N4C3=O)cc2c1 (stereo partly drawn) [Compound 306, propyl ((difluoro(2-(((3S,6S,9aS)-5-oxo-3-(3-(pyridin-3-yl)azetidine-1-carbonyl)octahydro-1H-pyrrolo[1,2-a]azepin-6-yl)carbamoyl)benzo [b]thiophen-5-yl)methyl)(phenoxy)phosphoryl)-L-alaninate] | 1000 to 3000 |
| CCCOC(=O)[C@H](C)N[P@@](=O)(Oc1ccccc1)[C@H](F)c1ccc2sc(C(=O)N[C@H]3CCC[C@H]4CC[C@@H](C(=O)N5CC(c6cnccc6C)C5)N4C3=O)cc2c1 (single isomer, unassigned) [Compound 1049] | < 100 |
| CCCOC(=O)[C@H](C)NP(=O)(Cc1ccc2sc(C(=O)N[C@H]3CCC[C@H]4CC[C@@H](C(=O)N5CC(c6cnccc6CC)C5)N4C3=O)cc2c1)Oc1ccccc1 (stereo partly drawn) [Compound 257, propyl (((2-(((3S,6S,9aS)-3-(3-(4-ethylpyridin-3-yl)azetidine-1-carbonyl)-5-oxooctahydro-1H-pyrrolo[1,2-a]azepin-6-yl)carbamoyl)benzo [b]thiophen-5-yl)methyl)(phenoxy)phosphoryl)-L-alaninate] | < 100 |
| CN=S(C)(=O)CC1(OC)CN(C(=O)C2CCC3CCCC(NC(=O)c4cc5cc(C(F)(F)P(=O)(OCCSC(=O)C(C)(C)C)OCCSC(=O)C(C)(C)C)ccc5s4)C(=O)N32)C1 [Compound 1015, S,S′-(((((2-(((3S,6S,9aS)-3-(3-((N,S-dimethyl-sulfonimidoyl)methyl)-3-methoxyazetidine-1-carbonyl)-5-oxooctahydro-1H-pyrrolo[1,2-a]azepin-6-yl)carbamoyl)benzo [b]thiophen-5-yl)difluoromethyl)phosphoryl)bis(oxy))bis(ethane-2,1-diyl)) bis(2,2-dimethyl-propanethioate)] | < 100 |
| CCCOC(=O)CC(C)NP(=O)(Cc1ccc2sc(C(=O)N[C@H]3CCC[C@H]4CC[C@@H](C(=O)N5CC(c6cccnc6)C5)N4C3=O)cc2c1)Oc1ccccc1 (stereo partly drawn) [Compound 311, propyl 3-((((2-(((3S,6S,9aS)-5-oxo-3-(3-(pyridin-3-yl)azetidine-1-carbonyl)octahydro-1H-pyrrolo[1,2-a]azepin-6-yl)carbamoyl)benzo [b]thiophen-5-yl)methyl)(phenoxy)phosphoryl)amino) butanoate] | > 3000 |
| CC(C)OC(=O)[C@H](C)NP(=O)(Oc1ccccc1)C(F)c1ccc2sc(C(=O)N[C@H]3CCC[C@H]4CC[C@@H](C(=O)N5CC(c6cnccc6F)C5)N4C3=O)cc2c1 (stereo partly drawn) [Compound 972, isopropyl ((fluoro(2-(((3S,6S,9aS)-3-(3-(4-fluoropyridin-3-yl)azetidine-1-carbonyl)-5-oxooctahydro-1H-pyrrolo[1,2-a]azepin-6-yl)carbamoyl)benzo [b]thiophen-5-yl)methyl) (phenoxy)phosphoryl)-L-alaninate] | < 100 |
| CCCOC(=O)[C@H](C)NP(=O)(Cc1ccc2sc(C(=O)N[C@H]3CCC[C@H]4CC[C@@H](C(=O)N5CC(c6cccnc6)C5)N4C3=O)cc2c1)OCC(F)(F)F (stereo partly drawn) [Compound 428, propyl (((2-(((3S,6S,9aS)-5-oxo-3-(3-(pyridin-3-yl)azetidine-1-carbonyl)octahydro-1H-pyrrolo[1,2-a]azepin-6-yl)carbamoyl)benzo [b]thiophen-5-yl)methyl)(2,2,2-trifluoroethoxy)phosphoryl)-L-alaninate] | < 100 |
| CC[C@H](NP(=O)(Cc1ccc2sc(C(=O)N[C@H]3CCC[C@H]4CC[C@@H](C(=O)N5CC(c6cccnc6)C5)N4C3=O)cc2c1)Oc1ccccc1)C(=O)OCC(C)C (stereo partly drawn) [Compound 947, isobutyl (2S)-2-((((2-(((3S,6S,9aS)-5-oxo-3-(3-(pyridin-3-yl)azetidine-1-carbonyl)octahydro-1H-pyrrolo[1,2-a]azepin-6-yl)carbamoyl)benzo [b]thiophen-5-yl)methyl)(phenoxy)phosphoryl)amino) butanoate] | < 100 |
| CCCOC(=O)[C@H](C)N[P@@](=O)(Oc1ccccc1)[C@@H](F)c1ccc2sc(C(=O)N[C@H]3C[C@@H](C)C[C@H]4CC[C@@H](C(=O)N5CC(c6cnccc6C)C5)N4C3=O)cc2c1 (single isomer, unassigned) [Compound 1036] | < 100 |
| CCCOC(=O)[C@H](C)NP(=O)(Cc1ccc2sc(C(=O)N[C@H]3CCC[C@H]4CC[C@@H](C(=O)N[C@H]5CN(C(C)=O)C[C@@H]5F)N4C3=O)cc2c1)Oc1ccccc1 (stereo partly drawn) [Compound 308, propyl (((2-(((3S,6S,9aS)-3-(((3S,4S)-1-acetyl-4-fluoropyrrolidin-3-yl)carbamoyl)-5-oxooctahydro-1H-pyrrolo[1,2-a]azepin-6-yl)carbamoyl)benzo [b]thiophen-5-yl)methyl)(phenoxy)phosphoryl)-L-alaninate] | > 3000 |
| CCCOC(=O)[C@H](C)NP(=O)(Oc1ccccc1)[C@@H](F)c1ccc2sc(C(=O)N[C@H]3CCC[C@H]4CC[C@@H](C(=O)N5CC(c6cncc(F)c6N(C)C)C5)N4C3=O)cc2c1 (stereo partly drawn) [Compound 1022, propyl (((R)-(2-(((3S,6S,9aS)-3-(3-(4-(dimethylamino)-5-fluoropyridin-3-yl)azetidine-1-carbonyl)-5-oxooctahydro-1H-pyrrolo[1,2-a]azepin-6-yl)carbamoyl)benzo [b]thiophen-5-yl)fluoromethyl) (phenoxy)phosphoryl)-L-alaninate] | < 100 |
| CCCOC(=O)[C@H](C)N[P@@](=O)(Oc1ccccc1)[C@H](F)c1ccc2sc(C(=O)N[C@H]3CCC[C@H]4CC[C@@H](C(=O)N5CC(c6cnccc6C)C5)N4C3=O)cc2c1 (single isomer, unassigned) [Compound 1000] | < 100 |
| CCCCOC(=O)[C@@H]1CCCN1P(=O)(Cc1ccc2sc(C(=O)N[C@H]3CCC[C@H]4CC[C@@H](C(=O)N5CC(c6cccnc6)C5)N4C3=O)cc2c1)Oc1ccccc1 (stereo partly drawn) [Compound 1003, butyl (((2-(((3S,6S,9aS)-5-oxo-3-(3-(pyridin-3-yl)azetidine-1-carbonyl)octahydro-1H-pyrrolo[1,2-a]azepin-6-yl)carbamoyl)benzo [b]thiophen-5-yl)methyl)(phenoxy)phosphoryl)-L-prolinate] | 1000 to 3000 |
| CC(C)OC(=O)[C@@H]1CCCN1P(=O)(Cc1ccc2sc(C(=O)N[C@H]3CCC[C@H]4CC[C@@H](C(=O)N5CC(c6cccnc6)C5)N4C3=O)cc2c1)Oc1ccccc1 (stereo partly drawn) [Compound 391, isopropyl (((2-(((3S,6S,9aS)-5-oxo-3-(3-(pyridin-3-yl)azetidine-1-carbonyl)octahydro-1H-pyrrolo[1,2-a]azepin-6-yl)carbamoyl)benzo [b]thiophen-5-yl)methyl)(phenoxy)phosphoryl)-L-prolinate] | 1000 to 3000 |
| CCCOC(=O)C1(NP(=O)(Cc2ccc3sc(C(=O)N[C@H]4CCC[C@H]5CC[C@@H](C(=O)N6CC(c7cccnc7)C6)N5C4=O)cc3c2)Oc2ccccc2)CC1 (stereo partly drawn) [Compound 434, propyl 1-((((2-(((3S,6S,9aS)-5-oxo-3-(3-(pyridin-3-yl)azetidine-1-carbonyl)octahydro-1H-pyrrolo[1,2-a]azepin-6-yl)carbamoyl)benzo [b]thiophen-5-yl)methyl)(phenoxy)phosphoryl)amino) cyclopropane-1-carboxylate] | 100 to 1000 |
